# Experimental data as given in patent US5506268A, “Use of isovaleramide as a mild anxiolytic and sedative agent” (priority 1993, dated 1996).
# “And” between values parts separate entries of the source, which are not always exact repeats. Equal values may be shown once. “Also recorded” adds a separate entry of the source. Read-outs that look alike come from different tables or passages of the source.
# Columns and labels:
# [1] = tested on: male rats; assay: Spontaneous locomotor activity measured electronically (sedative effect); type: in vivo, rat; settings: for relative potency as strong sedative-hypnotic agent, valnoctamide versus isovaleramide: FIG. 3
# Source text: General sedative effects can also be measured electronically by recording drug-induced decreases in spontaneous locomotor activity in treated experimental animals, as shown in FIG. 3.
# [2] = cited from earlier work
# [3] = tested on: aggressive experimental animals and anxious humans; settings: cited from earlier work
# [4] = tested on: male mice; settings: Roszkowski and Govier 1962; cited from earlier work
# [5] = tested on: male rats; assay: Hypnotic activity (loss of the righting reflex) in rats; settings: Rattus norvegicus, ip, read-out: hypnotic dose
# Procedure: Hypnotic activity was assessed by simply determining the doses of the test substances (administered by IP injection) sufficient to cause a loss of the righting reflex (see above) and an apparent loss of consciousness and responsiveness.
# [6] = tested on: BCA-1; assay: In vitro cytotoxicity (cell growth inhibition), BCA-1; type: cell-based, human and murine; settings: read-out: EC50 (concentration that inhibited cell growth by 50%)
# Procedure: (§1) The valepotriate compounds valtrate, didrovaltrate and acevaltrate were compared with isovaleramide with respect to their effects on various human and murine tumor cell lines. The cells at log-phase growth were treated with various concentrations of test substances for 48 hr. Growth rates were then determined by directly counting cell numbers or by protein determination. EC50 is the effective concentration of test substance that inhibited cell growth by 50%.
# [7] = tested on: COL-2; assay: In vitro cytotoxicity (cell growth inhibition), COL-2; type: cell-based, human and murine; settings: Homo sapiens, read-out: EC50 (concentration that inhibited cell growth by 50%)
# Procedure: as §1
# [8] = tested on: HT-1080; assay: In vitro cytotoxicity (cell growth inhibition), HT-1080; type: cell-based, human and murine; settings: Homo sapiens, read-out: EC50 (concentration that inhibited cell growth by 50%)
# Procedure: as §1
# [9] = tested on: LUC-1; assay: In vitro cytotoxicity (cell growth inhibition), LUC-1; type: cell-based, human and murine; settings: read-out: EC50 (concentration that inhibited cell growth by 50%)
# Procedure: as §1
# [10] = tested on: KB; assay: In vitro cytotoxicity (cell growth inhibition), KB; type: cell-based, human and murine; settings: Homo sapiens, read-out: EC50 (concentration that inhibited cell growth by 50%)
# Procedure: as §1
# [11] = tested on: KB-V1; assay: In vitro cytotoxicity (cell growth inhibition), KB-V1; type: cell-based, human and murine; settings: Homo sapiens, read-out: EC50 (concentration that inhibited cell growth by 50%)
# Procedure: as §1
# [12] = tested on: MEL-2; assay: In vitro cytotoxicity (cell growth inhibition), MEL-2; type: cell-based, human and murine; settings: read-out: EC50 (concentration that inhibited cell growth by 50%)
# Procedure: as §1
# [13] = tested on: P388; assay: In vitro cytotoxicity (cell growth inhibition), P388; type: cell-based, human and murine; settings: Mus musculus, read-out: EC50 (concentration that inhibited cell growth by 50%)
# Procedure: as §1
# [14] = tested on: male Sprague-Dawley rats; assay: Vogel Conflict (anxiolytic) Assay, punished licks; type: in vivo, rat; settings: for anxiolytic activity in Vogel Conflict Assay: comparable dose levels (500-1000 mg/kg)
# Source text: In the Vogel Conflict Paradigm, thirsty rats are given mild electric shocks through a metal water dispenser when they try to drink. The shock is unpleasant, but not severe enough to cause overt pain. When administered anxiolytic drugs, the rats lick the dispenser more often than controls. Assessment of anxiolytic effects is thus measured as an increased number of licks.
# Animals (male Sprague-Dawley rats, 250-300 g) are deprived of water for 24 hr and are then placed into a clear Plexiglass box (45 cm×25 cm×20 cm) which rests on a grid of stainless steel bars. A circuit between the grid bars and the drinking spout is established with a silver electrode in a drinking bottle placed in the chamber. The animals are allowed to lick the water dispenser for 5 min without shock; those animals that fail to lick are excluded from further study.
# The animals are returned to the home colony and are again deprived of water for 24 hr and replaced in the chamber and allowed to lick for 1 min without shock. Then a 1 milliamp current (shock) is maintained for 4 min at the drinking spout. Only the animals showing 50% suppression in licking behavior compared to the first session are included in further testing.
# The test substances are injected intraperitoneally (IP) after this session, and 30 min later the animals are again placed into the chamber. Again the animals are allowed to lick without shock for 1 min and the shock is instituted for the remaining 4 min. The number of punished licks during this time is used to assess anxiolytic activity.
# The "anxiolytic index" is defined as the ratio of the number of punished licks of test animals to that of control animals during a 4-min period. An anxiolytic index greater than one indicates anxiolytic ("calmative") activity. In practice, it is considered that significant "calmative" activity is observed when the anxiolytic index is greater than 1.5.
# Male Sprague-Dawley rats (250-300 g) were deprived of water for 24 hours before testing. The animals were allowed one five-minute period of drinking in the experimental chamber before receiving the test substances at the indicated doses. Thirty minutes later, the animals were returned to the chamber and allowed to drink for one minute without punishment. For the remaining four minutes, a shock was delivered to the drinking spout and the number of punished licks was recorded. Four or five animals were tested in each group.
# [15] = tested on: male mice; assay: Hypnotic activity (loss of the righting reflex) in mice; type: in vivo; settings: Mus musculus, ip
# [16] = tested on: male mice; assay: Direct observation of sedation / general activity level; type: in vivo, mouse; settings: for minimal effective dose: Mus musculus, mice, IP; for observed sedative effects: male mice
# Procedure: Sedative activity elicited by a test substance can be observed directly in experimental animals by a decrease in spontaneous locomotor activity, e.g., in open-field observation experiments. In such experiments, test animals are administered the test substance (usually by IP injection) and, after a suitable waiting period (usually 5-30 min), are placed into an open-field test chamber, which consists of a transparent plastic box with a clearly visible grid painted on the bottom (or floor). The numbers of excursions across the floor grids are then counted over a specified time period (usually 1-3 hours) and are subsequently compared with the numbers obtained from similarly treated saline controls. The number of grid crossings counted gives a direct measurement of the general activity level (measured as spontaneous locomotor activity) of each test animal in question. Sedative activity can be expressed as a percentage of the control level of spontaneous locomotor activity as measured by grid crossings per unit time.
# [17] = Acute toxicity (LD50) and therapeutic index; type: in vivo; settings: mouse, in vivo; mice, IP
# Procedure: (§2) Convulsant activity was tested for N,N-diethylisovaleramide and isovaleramide itself. The potential for CNS-stimulating and convulsant properties was assessed by administering appropriate doses of the test substances IP to rodents (male mice and rats). […] At the highest dose of isovaleramide tested (4000 mg/kg IP), some deaths resulted among the test animals (male mice) after sleeping for several days, apparently from respiratory depression. […] Further testing of isovaleramide at still higher dose levels was precluded by its solubility limits and the consequently overly large injection volumes required.
# [18] = tested on: male mice; assay: Acute toxicity (LD50) and therapeutic index; type: in vivo; settings: male mice, 4000 mg/kg IP
# Procedure: as §2
# [19] = tested on: various human and murine tumor cell lines; assay: Cytotoxicity summary over tumor cell lines; type: cell-based; settings: summary of Table 1
# Procedure: as §1
# [20] = tested on: hepatic porphyria; settings: literature; cited from earlier work
# [21] = in vivo; cited from earlier work
# [22] = tested on: experimental animals; settings: cited from earlier work; for narcotic and hypnotic effects: experimental animals
# [23] = tested on: male mice; settings: mouse, in vivo, ip
# Procedure: as §2
# [24] = tested on: rats; settings: rat, in vivo
# Procedure: as §2
# [25] = tested on: male Sprague-Dawley rats; settings: injected at therapeutically effective doses; cited from earlier work
compound,measurement,setting,value
CCC(C)C(CC)C(N)=O (racemic) [valnoctamide],"relative potency as strong sedative-hypnotic agent, valnoctamide versus isovaleramide",[1],about ten times more potent than isovaleramide
same,water solubility,[2],very water insoluble
same,tranquilizing and anxiety-reducing properties,[3],purported to exhibit tranquilizing and anxiety-reducing properties
same,therapeutic index,[4],~11.4
same,minimal effective dose,[5],250 mg/kg and 1750 µmol/kg
CC(=O)OCC1=CO[C@@H](OC(=O)CC(C)C)[C@H]2C1=C[C@H](OC(=O)CC(C)(C)OC(C)=O)[C@]21CO1 [Acevaltrate],EC50,"[6]; BCA1, BCA-1, 48 hr",1.94 mg/L
same,EC50,"[7]; Col2, COL-2, 48 hr",2.89 mg/L
same,EC50,"[8]; HT-1080, 48 hr",2.05 mg/L
same,EC50,"[9]; LUC1, LUC-1, 48 hr",4.3 mg/L
same,EC50,[10]; 48 hr,2.7 mg/L
same,EC50,"[11]; KB-V1, 48 hr",2.26 mg/L
same,EC50,"[12]; MEL2, MEL-2, 48 hr",0.75 mg/L
same,EC50,"[13]; P388, 48 hr",0.88 mg/L
CC(=O)O[C@H]1C[C@@H]2C(COC(=O)CC(C)C)=CO[C@@H](OC(=O)CC(C)C)[C@@H]2[C@@]12CO2 [Didrovaltrate],EC50,"[6]; BCA1, BCA-1, 48 hr",0.7 mg/L
same,EC50,"[7]; Col2, COL-2, 48 hr",1.49 mg/L
same,EC50,"[8]; HT-1080, 48 hr",0.7 mg/L
same,EC50,"[9]; LUC1, LUC-1, 48 hr",2.91 mg/L
same,EC50,[10]; 48 hr,2.03 mg/L
same,EC50,"[11]; KB-V1, 48 hr",1.29 mg/L
same,EC50,"[12]; MEL2, MEL-2, 48 hr",0.42 mg/L
same,EC50,"[13]; P388, 48 hr",0.19 mg/L
"CC(C)CC(N)=O [Isovaleramide, isovaleramide]",EC50,"[6]; BCA1, 48 h",> 20 mg/L
same,EC50,"[7]; Col2, 48 h",> 20 mg/L
same,EC50,"[8]; HT-1080, 48 h",> 20 mg/L
same,EC50,"[9]; LUC1, 48 h",> 20 mg/L
same,EC50,[10]; 48 h,> 20 mg/L
same,EC50,"[11]; KB-V1, 48 h",> 20 mg/L
same,EC50,"[12]; MEL2, 48 h",> 20 mg/L
same,EC50,"[13]; P388, 48 h",> 20 mg/L
same,increase in the number of punished licks over controls,"[14]; IP, 500-1000 mg/kg",approximate three-fold increase
same,minimal effective dose,"[15]; mice, IP, not hypnotic even at 1000 mg/kg, hypnotic at 2000 mg/kg, read-out: hypnotic dose",> 1000 mg/kg
same,minimal effective dose,"[15]; mice, IP, not hypnotic even at this dose, read-out: hypnotic dose",> 9900 µmol/kg
same,minimal effective dose,"[15]; very large doses approaching toxic dose levels, read-out: dose producing hypnosis",> 1000 mg/kg
same,decrease in spontaneous locomotor activity,[1]; 250 mg/kg IP,decreased locomotor activity to a level comparable to that induced by valnoctamide at 25 mg/kg
same,decrease in spontaneous locomotor activity,[1]; 500 mg/kg IP,comparable to that induced by valnoctamide at 50 mg/kg IP
same,"relative potency as strong sedative-hypnotic agent, valnoctamide versus isovaleramide",[1],only about one-tenth of the potent sedative-hypnotic properties exhibited by valnoctamide
same,minimal effective dose,"[16]; naive observers, read-out: dose at which naive observers distinguish treated mice from saline controls",250 mg/kg
same,minimal effective dose,"[16]; very astute observers, read-out: dose at which very astute observers distinguish treated mice from controls",100 mg/kg
same,observed sedative effects,[16]; 1000 mg/kg IP,clearly sedentary
same,observed sedative effects,[16]; 500 and 1000 mg/kg IP,much more pronounced
same,LD50,[17],> 4000 mg/kg
same,selectivity ratio,[17],~40
same,survival,[18],more than half of the experimental animals survived
same,mortality,[18]; after sleeping for several days,some deaths
same,cytotoxicity,[19],no cytotoxicity
same,water solubility,[2],essentially water soluble
same,hepatic porphyria-inducing properties,[20],no hepatic porphyria-inducing properties
same,anticonvulsant properties,[21],no anticonvulsant properties
same,clinical usefulness as a hypnotic,"[22]; Impens 1912, Junkmann 1937",clinically useless as a hypnotic
same,narcotic and hypnotic effects,[22],narcotic and hypnotic effects in experimental animals when administered in very high doses; also recorded: hypnotic activity only when administered to experimental animals in very high doses
CC(C)CC(=O)O [Isovaleric acid],narcotic and hypnotic effects,[22],narcotic and hypnotic effects in experimental animals when administered in very high doses
"CCN(CC)C(=O)CC(C)C [N,N-Diethylisovaleramide, N,N-diethylisovaleramide]",dose with CNS-stimulating (excitant) activity,[14]; Vogel assay (FIG. 2),50 mg/kg
same,dose causing death following convulsive seizures,[23],500 mg/kg
same,dose with potent CNS-stimulating and convulsant properties,[23],250 mg/kg
same,"CNS-stimulating, anxiogenic and convulsant properties",[24],"CNS-stimulating, anxiogenic, and convulsant properties"
same,dose at which potent convulsant,[24]; ip,250 mg/kg
CC(=O)OCC1=CO[C@@H](OC(=O)CC(C)C)[C@H]2C1=C[C@H](OC(=O)CC(C)C)[C@]21CO1 [Valtrate],EC50,"[6]; BCA1, 48 h",0.41 mg/L
same,EC50,"[7]; Col2, 48 h",0.59 mg/L
same,EC50,"[8]; HT-1080, 48 h",0.41 mg/L
same,EC50,"[9]; LUC1, 48 h",2 mg/L
same,EC50,[10]; 48 h,0.51 mg/L
same,EC50,"[11]; KB-V1, 48 h",0.72 mg/L
same,EC50,"[12]; MEL2, 48 h",0.39 mg/L
same,EC50,"[13]; P388, 48 h",0.06 mg/L
CN1C(=O)CN=C(c2ccccc2)c2cc(Cl)ccc21 [diazepam],increase in the number of licks,[25],ten-fold increase
CCCC(N)=O [n-Butyramide],anxiolytic activity in Vogel Conflict Assay,[14]; IP,no significant anxiolytic activity
OC[C@H]1O[C@@](CO)(O[C@H]2O[C@H](CO)[C@@H](O)[C@H](O)[C@H]2O)[C@@H](O)[C@@H]1O [sucrose],anxiolytic activity in Vogel Conflict Assay,[14]; IP,no significant anxiolytic activity
